Consider 60 compounds from PMC12040169 (PLOS Biology, 2025).

This data set can be described thus: in vitro. Particulars: human, hela cells, % viability.
`CC(C)(C)NC(=O)N1CCC(Nc2nccc(C(F)(F)F)n2)CC1` [CBK028788]: the viability at 28.5 h, 10 µM was determined as 113%.

Turning to `N#CCSc1nnc(NC(=O)Nc2ccccc2)s1` [CBK028792], the viability at 28.5 h, 10 µM stood at 85.3%.

As for `C#CC1(NC(=O)NS(=O)(=O)c2ccc(C)cc2)CCCCC1` [CBK028805], the viability at 28.5 h, 10 µM turned out to be 96.9%.

On to `Cn1c(S)nnc1-c1ccccc1F` [CBK028811], for which the viability at 28.5 h, 10 µM turned out to be 95%.

For `O=C1CN=C(N2C(=O)C3C4C=CC(C4)C3C2=O)C(=O)N1` (stereo not drawn) [CBK028818], the viability at 28.5 h, 10 µM was 89.7%.

With `Cc1nnc(N/N=C\c2ccco2)n1N` [CBK028824C], the viability at 28.5 h, 10 µM is 97.4%.

In the case of `O=C(Nc1cc(Cl)ccc1Cl)c1ncn[nH]1` [CBK028834], the viability at 28.5 h, 10 µM was 92.9%.

On to `Nc1nonc1N/N=C/c1ccccc1F` [CBK028838], for which the viability at 28.5 h, 10 µM was 68.4%.

Turning to `CC1=CC(=O)Nc2ccccc2S1` [CBK028872], the viability at 28.5 h, 10 µM came to 118%.

Take `Cc1ccnc(SCC(N)=O)n1` [CBK028874]: the viability at 28.5 h, 10 µM worked out at 96.1%.

Consider `COc1cc(CCN2CCN(C(C)C)CC2)cc(OC)c1OC` [CBK028881C], for which the viability at 28.5 h, 10 µM was determined as 89.8%.

Regarding `Cc1cc(C(=O)O)c2[nH]c3c(c2c1)CCCC3` [CBK028885], the viability at 28.5 h, 10 µM worked out at 95.5%.

`COc1cc(C=C2C(=O)OC(C)(C(C)(C)C)OC2=O)cc(Br)c1OC` (stereo not drawn) [CBK028893]: the viability at 28.5 h, 10 µM turned out to be 96.5%.

As for `CC(C)N1CCN(c2nccnc2Cl)CC1` [CBK028901], the viability at 28.5 h, 10 µM is 101%.

Consider `CC(C)(C)c1cc(NC(=O)c2csc3c(C(F)(F)F)cc(N4CCN(Cc5ccccc5)CC4)nc23)no1` [CBK028962], for which the viability at 28.5 h, 10 µM was found to be 108%.

Turning to `CC1(C)CC(NC2=CC(=O)CC2)CC(C)(C)N1` [CBK028997], the viability at 28.5 h, 10 µM was 115%.

Take `O=C(Nc1cccc(N2CCNCC2)c1)c1cnc2ccccc2c1` [CBK029415T]: the viability at 28.5 h, 10 µM amounted to 83.2%.

On to `COc1ccc(C(=O)Nc2cccnc2N2CCNCC2)cc1` [CBK029421T], for which the viability at 28.5 h, 10 µM is 102%.

Turning to `O=C(Nc1cccnc1N1CCNCC1)c1ccccn1` [CBK029425T], the viability at 28.5 h, 10 µM is 116%.

With `O=C(Nc1ccc(N2CCNCC2)nc1)c1cccs1` [CBK029430T], the viability at 28.5 h, 10 µM turned out to be 111%.

In the case of `COc1ccc(C(=O)Nc2ccc(N3CCNCC3)nc2)cc1` [CBK029434T], the viability at 28.5 h, 10 µM is 111%.

On to `N#Cc1ccc(C(=O)Nc2ccc(N3CCNCC3)nc2)cc1` [CBK029435T], for which the viability at 28.5 h, 10 µM was 95.2%.

Regarding `O=C(Nc1ccccc1N1CCNCC1)c1cccs1` [CBK029443T], the viability at 28.5 h, 10 µM was found to be 95.5%.

For `O=C(NCc1ccccc1OC1CCNC1)c1cnccn1` (stereo not drawn) [CBK029462T], the viability at 28.5 h, 10 µM was found to be 101%.

As to `Cn1cccc1C(=O)NCc1ccccc1OC1CCNC1` (stereo not drawn) [CBK029463T], the viability at 28.5 h, 10 µM came out at 88.7%.

For the compound `O=C(Nc1cccc(N2CCNCC2)c1)c1cnccn1` [CBK029470T], the viability at 28.5 h, 10 µM is 90.3%.

With `CNCC(=O)N1CCN(C(=O)c2ccc(Cl)cc2Cl)CC1` [CBK029576], the viability at 28.5 h, 10 µM was found to be 99.9%.

In the case of `O=C(O)c1ccc2[nH]c(=O)[nH]c2c1` [CBK032631], the viability at 28.5 h, 10 µM was determined as 81.3%.

Take `CC(C)COc1ccccc1C(=O)NCCC(=O)O` [CBK033507]: the viability at 28.5 h, 10 µM stood at 102%.

As to `Cc1cc(OCCCCNCCO)ccc1Cl` [CBK033516], the viability at 28.5 h, 10 µM came out at 111%.

Turning to `CS(=O)(=O)N(Cc1ccccc1)c1ccc(C(=O)Nc2ccc3c(c2)OCO3)cc1` [CBK033562], the viability at 28.5 h, 10 µM stood at 85.4%.

In the case of `CC1(C)NC(=O)N(CC(O)CN(c2cc(Cl)ccc2Cl)S(=O)(=O)c2ccccc2)C1=O` (stereo not drawn) [CBK033672], the viability at 28.5 h, 10 µM turned out to be 91.4%.

As for `COc1ccc(C2Nc3ccccc3C(=O)N2Cc2ccccc2)cc1COc1ccc([N+](=O)[O-])cc1` (stereo not drawn) [CBK033690], the viability at 28.5 h, 10 µM is 86.9%.

For the compound `O=C(c1ccc(C#CC2(O)CCCCC2)cc1)N1CCC(C(O)(c2ccccc2)c2ccccc2)CC1` [CBK033758], the viability at 28.5 h, 10 µM was 84.7%.

`Cc1ccc([N+](=O)[O-])cc1NC(=O)C1CCCN1S(=O)(=O)c1ccc(Cl)cc1` (stereo not drawn) [CBK033769]: the viability at 28.5 h, 10 µM was 95.7%.

In the case of `COc1ccc(CN2CCN(Cc3ccc4c(c3)OCO4)CC2)c(OC)c1OC` [CBK033874], the viability at 28.5 h, 10 µM came out at 91.4%.

In the case of `COc1cc(C(=O)Nc2ccc(-c3nc4ncccc4o3)cc2)ccc1OCc1ccc(Cl)cc1` [CBK033914], the viability at 28.5 h, 10 µM is 92.7%.

Consider `CCCC1COC(c2ccc(C#N)cc2)OC1` (stereo not drawn) [CBK033941], for which the viability at 28.5 h, 10 µM was found to be 94.5%.

For `CC(C)c1cc2cc3ccc(=O)oc3cc2o1` [CBK033944], the viability at 28.5 h, 10 µM amounted to 93.6%.

For `Oc1ccc(Oc2ccc(Oc3ccc(O)cc3)cc2)cc1` [CBK033968], the viability at 28.5 h, 10 µM is 107%.

In the case of `CC(CCc1ccc(O)cc1)NC1CCCC1` (stereo not drawn) [CBK033987], the viability at 28.5 h, 10 µM came out at 102%.

On to `CCCCN1CCC(CNc2cc(C(F)(F)F)c3scc(C(=O)NC4CCC4)c3n2)CC1` [CBK034026C], for which the viability at 28.5 h, 10 µM was 103%.

Take `O=S(=O)(c1ccc(N2CCNCC2)cc1)n1ccc2ccc(Br)cc21` [CBK034034C]: the viability at 28.5 h, 10 µM was 70.6%.

On to `CCCc1ccc(S(=O)(=O)Nc2ccc(C(=O)O)cc2)cc1` [CBK034044], for which the viability at 28.5 h, 10 µM worked out at 114%.

On to `O=C(O)c1ccc(NS(=O)(=O)c2cc(F)c(Br)cc2F)cc1` [CBK034045], for which the viability at 28.5 h, 10 µM is 101%.

For `O=C(O)c1ccc(NS(=O)(=O)c2cc(Cl)sc2Cl)cc1` [CBK034046], the viability at 28.5 h, 10 µM was determined as 99.9%.

With `COc1ccc(Br)cc1S(=O)(=O)Nc1ccc(C(=O)O)cc1` [CBK034047], the viability at 28.5 h, 10 µM is 106%.

Take `COc1ccc(S(=O)(=O)Nc2ccc(C(=O)O)cc2)cc1OC` [CBK034048]: the viability at 28.5 h, 10 µM came to 96.2%.

Consider `O=C(O)c1ccc(NS(=O)(=O)c2cc(Br)c(Cl)s2)cc1` [CBK034049], for which the viability at 28.5 h, 10 µM turned out to be 95.8%.

Turning to `O=C(O)c1ccc(NS(=O)(=O)c2ccc3ccccc3c2)cc1` [CBK034053], the viability at 28.5 h, 10 µM came out at 96.6%.

In the case of `Cc1ccc(S(=O)(=O)Nc2ccc(C(=O)O)cc2)cc1[N+](=O)[O-]` [CBK034055], the viability at 28.5 h, 10 µM came to 94.8%.

For `O=C(O)c1ccc(NS(=O)(=O)c2ccc(Br)cc2)cc1` [CBK034058], the viability at 28.5 h, 10 µM was found to be 97.6%.

Turning to `NS(=O)(=O)c1cnc(Cl)c(Br)c1` [CBK034079], the viability at 28.5 h, 10 µM is 92.5%.

For the compound `NC(=O)CCCCn1c2c(c3cccc(C(=O)O)c31)CCCCC2` [CBK034088], the viability at 28.5 h, 10 µM was found to be 104%.

`O=C(Nc1cccnc1N1CCNCC1)c1ccc(-c2cccc(C(F)(F)F)c2)o1` [CBK034119T]: the viability at 28.5 h, 10 µM is 90.1%.

For the compound `COc1ccc(/C=C(\C)C(=O)Nc2cccnc2N2CCNCC2)cc1OC` [CBK034124T], the viability at 28.5 h, 10 µM was 88.3%.

In the case of `O=C(/C=C/c1cccnc1)Nc1ccccc1N1CCNCC1` [CBK034136T], the viability at 28.5 h, 10 µM came to 102%.

As for `Cn1cc(C(=O)Nc2ccccc2N2CCNCC2)c2ccccc21` [CBK034141T], the viability at 28.5 h, 10 µM worked out at 92.2%.

`COc1ccc([C@@]23CC[C@@H](NC(=O)Nc4ccc5ccccc5c4)C[C@@H]2N(C)CC3)cc1OC` [CBK034181T]: the viability at 28.5 h, 10 µM was 102%.

On to `CCOCCc1nsc(NS(=O)(=O)c2cccc(Cl)c2C)n1` [CBK034245], for which the viability at 28.5 h, 10 µM turned out to be 102%.
